Structures are written as SMILES.

Drawing on ChEMBL document CHEMBL1138334, “From astemizole to a novel hit series of small-molecule somatostatin 5 receptor antagonists via GPCR affinity profiling” (J Med Chem, 2007), this text covers Ki and IC50 for six molecules.

Test [1] concerns the target Somatostatin receptor type 5 (Homo sapiens, UniProt P35346). As to the kind of experiment: Binding affinity to human SST5R.
The target in the next test is Histamine H1 receptor (Homo sapiens, UniProt P35367). Description: Binding affinity to human histamine H1 receptor.
The target in test [2] is Somatostatin receptor type 2 (Homo sapiens, UniProt P30874). As to the kind of experiment: Binding affinity to human SST2R.
Test [3] has as its target Somatostatin receptor type 1 (Homo sapiens, UniProt P30872). As to the kind of experiment: Binding affinity to human SST1R.
Test [4] addresses Somatostatin receptor type 3 (Homo sapiens, UniProt P32745). Description: Binding affinity to human SST3R.
The target of test [5] is Voltage-gated inwardly rectifying potassium channel KCNH2 (Homo sapiens, UniProt Q12809). Description: Binding affinity to human ERG channel.
Voltage-gated inwardly rectifying potassium channel KCNH2, sequence (Q12809 whole entry): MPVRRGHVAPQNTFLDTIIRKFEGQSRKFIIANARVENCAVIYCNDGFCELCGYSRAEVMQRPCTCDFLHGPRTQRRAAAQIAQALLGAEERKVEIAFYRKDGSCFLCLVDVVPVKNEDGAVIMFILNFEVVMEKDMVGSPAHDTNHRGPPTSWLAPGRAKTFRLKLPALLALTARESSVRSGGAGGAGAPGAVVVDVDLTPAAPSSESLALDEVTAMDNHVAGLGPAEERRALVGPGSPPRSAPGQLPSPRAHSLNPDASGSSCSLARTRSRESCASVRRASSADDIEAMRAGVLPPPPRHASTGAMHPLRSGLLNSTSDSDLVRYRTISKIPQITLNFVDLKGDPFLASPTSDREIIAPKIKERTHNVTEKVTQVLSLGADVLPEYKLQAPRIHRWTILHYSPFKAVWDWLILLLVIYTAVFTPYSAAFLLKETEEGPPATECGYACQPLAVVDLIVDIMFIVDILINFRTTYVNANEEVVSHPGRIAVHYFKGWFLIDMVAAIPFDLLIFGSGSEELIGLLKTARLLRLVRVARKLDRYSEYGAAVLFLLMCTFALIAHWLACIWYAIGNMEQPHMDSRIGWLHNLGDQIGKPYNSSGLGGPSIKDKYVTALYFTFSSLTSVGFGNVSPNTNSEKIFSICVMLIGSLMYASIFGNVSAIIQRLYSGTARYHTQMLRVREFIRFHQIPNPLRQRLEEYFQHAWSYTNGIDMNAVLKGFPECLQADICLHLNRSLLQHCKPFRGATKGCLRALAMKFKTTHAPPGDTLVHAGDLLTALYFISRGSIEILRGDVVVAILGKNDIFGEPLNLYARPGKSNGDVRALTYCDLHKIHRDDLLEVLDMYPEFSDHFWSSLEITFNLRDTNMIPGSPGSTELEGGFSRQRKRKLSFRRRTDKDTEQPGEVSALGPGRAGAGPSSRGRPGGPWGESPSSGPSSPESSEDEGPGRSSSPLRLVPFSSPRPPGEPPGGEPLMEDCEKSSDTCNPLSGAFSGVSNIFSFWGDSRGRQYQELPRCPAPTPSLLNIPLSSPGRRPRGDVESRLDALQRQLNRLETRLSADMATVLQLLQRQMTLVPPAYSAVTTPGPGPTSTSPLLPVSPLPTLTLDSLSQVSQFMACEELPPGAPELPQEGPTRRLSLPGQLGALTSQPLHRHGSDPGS

Somatostatin receptor type 5, sequence (P35346 whole entry): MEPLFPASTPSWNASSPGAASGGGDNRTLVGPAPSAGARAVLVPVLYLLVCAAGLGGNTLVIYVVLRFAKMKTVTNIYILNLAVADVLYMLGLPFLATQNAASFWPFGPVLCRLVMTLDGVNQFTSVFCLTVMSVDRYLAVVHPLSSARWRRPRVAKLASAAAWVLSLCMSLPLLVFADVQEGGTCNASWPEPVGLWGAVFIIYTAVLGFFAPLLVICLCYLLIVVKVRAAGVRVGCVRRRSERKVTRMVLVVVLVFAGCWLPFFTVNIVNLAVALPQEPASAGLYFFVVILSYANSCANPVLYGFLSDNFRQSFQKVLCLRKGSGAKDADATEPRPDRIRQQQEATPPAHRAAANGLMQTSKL
Histamine H1 receptor, sequence (P35367 whole entry): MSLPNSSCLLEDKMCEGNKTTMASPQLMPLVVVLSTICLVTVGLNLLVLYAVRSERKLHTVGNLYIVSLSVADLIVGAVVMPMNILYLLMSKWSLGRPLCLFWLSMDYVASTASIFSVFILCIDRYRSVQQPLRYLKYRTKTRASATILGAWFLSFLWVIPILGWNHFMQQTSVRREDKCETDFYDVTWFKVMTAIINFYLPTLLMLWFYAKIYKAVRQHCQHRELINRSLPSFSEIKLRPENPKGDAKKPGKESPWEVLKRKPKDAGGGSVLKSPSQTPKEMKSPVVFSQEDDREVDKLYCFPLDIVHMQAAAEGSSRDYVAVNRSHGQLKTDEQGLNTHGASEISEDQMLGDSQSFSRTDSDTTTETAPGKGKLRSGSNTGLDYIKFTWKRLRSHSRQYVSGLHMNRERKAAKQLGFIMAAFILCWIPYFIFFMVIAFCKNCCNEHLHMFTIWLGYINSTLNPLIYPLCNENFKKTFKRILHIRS
Somatostatin receptor type 3, sequence (P32745 whole entry): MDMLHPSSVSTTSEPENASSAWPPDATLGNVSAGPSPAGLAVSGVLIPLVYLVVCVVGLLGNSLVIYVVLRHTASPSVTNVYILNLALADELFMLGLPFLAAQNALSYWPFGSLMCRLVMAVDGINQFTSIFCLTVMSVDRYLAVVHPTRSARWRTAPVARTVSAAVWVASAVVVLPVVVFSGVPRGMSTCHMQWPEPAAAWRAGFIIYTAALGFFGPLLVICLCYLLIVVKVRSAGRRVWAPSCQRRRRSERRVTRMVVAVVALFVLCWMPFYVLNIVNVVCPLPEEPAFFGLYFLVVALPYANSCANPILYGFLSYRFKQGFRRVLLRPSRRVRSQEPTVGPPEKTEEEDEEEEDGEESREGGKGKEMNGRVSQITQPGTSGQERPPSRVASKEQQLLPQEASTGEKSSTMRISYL
Somatostatin receptor type 2, sequence (P30874 whole entry): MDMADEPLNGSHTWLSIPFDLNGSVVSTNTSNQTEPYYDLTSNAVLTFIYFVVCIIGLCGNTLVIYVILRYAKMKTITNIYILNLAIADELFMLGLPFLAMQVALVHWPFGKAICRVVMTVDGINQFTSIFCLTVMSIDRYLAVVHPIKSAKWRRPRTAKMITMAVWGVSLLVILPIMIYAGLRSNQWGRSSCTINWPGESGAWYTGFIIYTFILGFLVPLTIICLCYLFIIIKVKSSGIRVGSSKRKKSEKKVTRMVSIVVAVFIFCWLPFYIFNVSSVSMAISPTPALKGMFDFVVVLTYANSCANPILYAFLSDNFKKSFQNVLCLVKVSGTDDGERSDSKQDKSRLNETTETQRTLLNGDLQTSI
Somatostatin receptor type 1, sequence (P30872 whole entry): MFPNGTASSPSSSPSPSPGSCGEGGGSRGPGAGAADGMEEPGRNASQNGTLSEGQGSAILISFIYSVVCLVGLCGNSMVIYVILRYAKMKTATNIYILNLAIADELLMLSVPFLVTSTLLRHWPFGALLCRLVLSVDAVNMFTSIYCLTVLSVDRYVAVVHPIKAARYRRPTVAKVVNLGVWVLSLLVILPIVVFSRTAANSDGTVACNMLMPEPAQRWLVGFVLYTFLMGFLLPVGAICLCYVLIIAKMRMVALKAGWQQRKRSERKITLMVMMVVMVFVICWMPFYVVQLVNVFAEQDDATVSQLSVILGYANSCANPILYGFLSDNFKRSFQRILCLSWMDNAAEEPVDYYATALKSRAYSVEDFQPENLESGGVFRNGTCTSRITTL

For `COc1cc(CN2CCC(NC(=O)c3cncc(C)c3)CC2)c(OC)c2ccccc12`, in test [1], the Ki (commonly a measure of affinity in units of concentration, obtained from inhibition or displacement) turned out to be 40 nM.
Regarding `CCOc1cc(CN2CCC(NC(=O)c3cncc(C)c3)CC2)ccc1Cl`, the Ki at Histamine H1 receptor is 270 nM; in test [1], 20 nM; in test [2], over 10000 nM; in test [3] it was 5100 nM; in test [4] it was over 10000 nM.
For `CCOc1cc(CN2CCC(NC(=O)c3cccc(S(C)(=O)=O)c3)CC2)ccc1Cl`, the values for the Ki (at Histamine H1 receptor; in test [1]) were over 5000 nM and 60 nM, respectively. In addition, the IC50 (as a rule, the midpoint of a concentration-inhibition curve) in test [5] is 1300 nM.
In turn, `COc1cc(CN2CCC(NC(=O)c3ccccc3)CC2)c(OC)c2ccccc12` showed a Ki in test [1] of 120 nM.
Take `COc1cc(CN2CCC(NC(=O)c3ccc(C(C)(C)C)cc3)CC2)c(OC)c2ccccc12`: in test [1], the Ki was 20 nM.
`COc1cc(CN2CCC3(CC2)OC(=O)c2ccccc23)c(OC)c2ccccc12`: the affinity in test [1], expressed as Ki, was 1100 nM.
